Reference: patent US20240287065A1, “COMPOUND AS CDK KINASE INHIBITOR AND USE THEREOF” (TYK MEDICINES (ZHENGZHOU) , INC., priority 2021, published 2024)
Read-outs that look alike come from different tables or passages of the source.

Legend:
[1] = biological target: CDK2/CycE1 (Homo sapiens, UniProt P24941); assay: Enzyme activity test; type: biochemical;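 note: values come from the source column headed CDK2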
Experimental: (§1) • 1. The test compounds and pabocinib were configured into a […] solution of DMSO; • 2. 20 nL of stock solution was transferred to a 384-well plate using Echo550. DMSO was used as a blank control.
(§2) • 1. according to the following table to prepare 1.3X enzyme solution containing enzyme, substrate and cofactor; • 2. 15 μL of 1.3X enzyme solution was added to each well and the mixture was incubated for 30 min at room temperature; • 3. 5 μL of ATP solution was added to initiate the reaction. The final volume of each well was 20 μL; • 4. After incubation for 150 min at room temperature, 75 μL of termination buffer solution was added to terminate the experiment; • 5. The samples were analyzed using EZ reader.
(§3) The % inhibition was calculated using the following equation
(§4) The one treated with DMSO is the positive control (PC)
(§5) The one without enzyme is the negative control (NC)
(§6) % Inhibition=100-100*((CRPC−CRsample)/(CRPC−CRNC))

[2] = biological target: CDK6/CycD1 (Homo sapiens, UniProt Q00534); assay: Enzyme activity test; type: biochemical;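 note: values come from the source column headed CDK6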
Experimental: as §1, §2, §3, §4, §5, §6

[3] = biological target: CDK4/CycD3 (Homo sapiens, UniProt P11802); assay: Enzyme activity test; type: biochemical;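 note: values come from the source column headed CDK4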
Experimental: as §1, §2, §3, §4, §5, §6

[4] = tested on: HCC1806 cells; assay: Cell proliferation inhibition assay (MTT, 7 days); type: cell-based; conditions: Homo sapiens, HCC1806, 168 h, HCC1086 [sic], 7 days incubation
Experimental: (§7) MCF7, T47D, OVCAR3 and HCC1806 cells were inoculated in 96-well plates at 3000, 3000, 2500, and 2000 cells/well, respectively, and cultured overnight at 37° C., 5% C02 incubator.
(§8) 1. […] Then 2.5 μl of the stock solution was dissolved in 497.5 μl of DMSO-free medium, and then a 3-fold serial gradient dilution was performed with 0.1% DMSO medium for a total of 9 concentrations, and the concentrations of the compounds after dilution were as follows: • 10000 nM, 3333.33 nM, 1111.11 nM, 370.34 nM, 123.45 nM, 41.15 nM, 13.72 nM, 4.57 nM, and 1.52 nM. • b) After fully mixing, 20 μL of compound solutions were added into cell culture plates containing 80 μL of cells respectively, with 4 replicate wells for each concentration. • c) The cells were transferred to an incubator and incubated for 7 days, and exchanged with fresh culture medium containing the same concentration of compounds when incubated to day 4. 2. MTT assay • a) The cell culture plate was taken out and 10 μL of 5 mg/ml MTT was added to the hood. • b) The cell culture plate was put back into the incubator and continued to incubate for 3 hours. • c) The cell culture plate was taken out to remove the culture medium, and 100 μL of isopropanol (0.4 mMHCl, 0.4% NP40) was added to the plate, and the plate was shaken on a shaker at room temperature for 30 minutes and read at 570 nm. 3. Data analysis
(§9) The survival rate (% Cell Survival) was calculated using the following equation:
(§10) % Cell Survival=100%×(OD_Sample−OD_LCave)/(OD_HC−OD_LCave) • OD_HC: 0.1‰ cell readings of DMSO control • OD_Sample: cell readings of compound addition • OD_LC: readings of blank medium • Analyed by Prizm: Dose-response-Inhibition Log(inhibitor) vs response (three parameters for the best fit)
(§11) IC50 (nM) values were calculated by concentration-response curve fitting.

[5] = tested on: T47D cells; assay: Cell proliferation inhibition assay (MTT, 7 days); type: cell-based; conditions: Homo sapiens, 168 h, 7 days incubation
Experimental: as §7, §8, §9, §10, §11

[6] = tested on: OVCAR3 cells; assay: Cell proliferation inhibition assay (MTT, 7 days); type: cell-based; conditions: Homo sapiens, OVCAR-3, 168 h, 7 days incubation
Experimental: as §7, §8, §9, §10, §11

[7] = tested on: MCF7 cells; assay: Cell proliferation inhibition assay (MTT, 7 days); type: cell-based; conditions: Homo sapiens, 168 h, 7 days incubation
Experimental: as §7, §8, §9, §10, §11

[8] = tested on: MCF-7-Palbo-R cells; assay: MCF-7-Palbo-R cell antiproliferative assay (BrdU ELISA); type: cell-based; conditions: for IC50: 72 hours, BrdU
Experimental: 1. Experimental Materials • MCF-7/palbo-R • EMEM medium (ATCC, 30-2003); DMEM/F12 medium (Gibco-1 1330-032) • Fetal bovine serum (cellmax-SA21 1.02) • DMSO (SIGMA, D2650) • BrdU ELISA cell proliferation assay kit (Roche, 11647229001) • ELISA (e.g. MD-SpectraMax ID5 or EnVision)
2. Experimental protocol • 1. Cell spreading • 1) Cells were counted, the concentration of cell suspension was adjusted • 2) The MCF7/Palbo-R cell suspension was seeded in 96-well plates at […] volume to make the number of cells per well is 4000-5000; • 3) Blank control group was added with 90 μl of culture medium; • 2. […] A 3-fold serial gradient dilution was performed with 0.1% DMSO medium for a total of 9 concentrations, and the concentrations of the compounds after dilution were as follows: • 10000 nM, 3333.33 nM, 1111.11 nM, 370.34 nM, 123.45 nM, 41.15 nM, 13.72 nM, 4.57 nM, and 1.52 nM. • b) After 72 hours of compound treatment. • 1) A 10 mM of Brdu stock solution was diluted with RPMI medium and added to a 96-well plate at 20 uL/well and shaken at 350 rpm for 10 minutes. • 2) The 96 well plate was placed back into the incubator for 1 or 2 hours. • 3) After the medium was removed from the 96-well plate, 200 ul/well of Fixation/Denaturation solution was added and incubated for 30 minutes at room temperature. • 4) The fixation solution was removed and 100 ul of peroxidase-coupled anti-Brdu antibody solution (antibody dilution prepared at 1:100 dilution) was added, • and incubated at 350 rpm for 1 hour at room temperature. • 6) The 96-well plate was washed three times with 300 ul/well of PBS. • 8) 100ul of peroxidase substrate solution was added and shaken at 350 rpm for about 10-20 minutes at room temperature, • until the DMSO-treated cell control wells turn a medium blue color. If a color is too dark, it will cause the absorbance value to out of the reading range. • 9) The reaction was terminated by the addition of 25 ul of 1 M sulfuric acid. Shake to ensure uniform color. • 10) The absorbance at 450 nm was recorded. • 3. Data analysis • The inhibition rate is calculated using the following equation:
IR (%)=(1−(RLU compound−RLU blank)/(RLU control−RLU blank))*100%.

[9] = tested on: xMCF-7/Palbo-R cells; assay: xMCF-7/Palbo-R xenograft tumor model; type: in vivo; conditions: 20 mg/kg, oral tube feeding twice daily for 20 days, Balb/c nude female mice
Experimental: To establish a xenograft tumor model, 1×10^7 xMCF-7/Palbo-R cells were suspended in 0.2 mL of a mixture of Matrigel and […] (1:1) and injected subcutaneously into 6-8 week-old Balb/c nube female mice. Tumor growth was observed periodically, and the volume (volume=½×(length×width 2)) was measured with a vernier caliper. When the tumors grew to an average volume of 100˜150 mm3, the drug was administered to mice (12 days after inoculation) in random groups according to the tumor size and their body weights. […] The drugs were administered by oral tube feeding twice daily for 20 days. Tumor volume and animal weight were measured twice a week and continued until the end of the experiment. Dosing day was defined as day 0. Measurement time points were day 0, day 3, day 7, day 10, day 14, day 17 and day 20. All mice were euthanized by cervical dislocation. At the end of the experiment, tumors were collected and weighed to calculate TGI values (see Table 4).

[10] = tested on: OVCAR-3 cells; assay: OVCAR-3 xenograft tumor model; type: in vivo; conditions: oral tube feeding twice daily for 21 days, BALB/c nude female mice
Experimental: OVCAR-3 cells were cultured in RPMI1640 culture medium containing 20% fetal bovine serum and 10 μg/mL Insalin. Cells in the exponential growth phase were collected, and the cells were resuspended in the mixed solution of PBS and Matrigel in a ratio of 1:1 to a suitable concentration for subcutaneous tumor inoculation in nude mice.
To establish a xenograft tumor model, 1×10^7 OVCAR-3 cells were suspended in 0.2 mL of a mixture of PBS and Matrigel (1:1) and injected subcutaneously into 6-8-week-old BALB/c nube female mice on the right back. Tumor growth was observed periodically, and the volume (volume=½[…](length×width 2)) was measured with a vernier caliper. When the tumors grew to an average volume of 100˜150 mm^3, the drug was administered to mice (27 days after inoculation) in random groups according to the tumor size and their body weights. […] Tumor volume and animal weight were measured twice a week and continued until the end of the experiment. Dosing day was defined as day 0. Measurement time points were day 0, day 3, day 7, day 10, day 14, day 17 and day 21. All mice were euthanized by cervical dislocation. At the end of the experiment, tumors were collected and weighed to calculate TGI values (see Table 5).

CDK4/CycD3, sequence (P11802 whole entry, species assumed): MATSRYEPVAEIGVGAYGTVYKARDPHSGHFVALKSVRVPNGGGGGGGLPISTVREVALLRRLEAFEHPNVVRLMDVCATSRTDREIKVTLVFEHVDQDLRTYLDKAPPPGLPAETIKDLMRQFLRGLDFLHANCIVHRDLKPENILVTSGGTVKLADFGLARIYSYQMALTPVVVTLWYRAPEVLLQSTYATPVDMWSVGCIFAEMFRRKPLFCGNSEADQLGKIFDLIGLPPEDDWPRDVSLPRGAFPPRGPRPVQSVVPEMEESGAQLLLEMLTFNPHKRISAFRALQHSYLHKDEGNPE
CDK4/CycD3, sequence (P30281 whole entry partner, species assumed): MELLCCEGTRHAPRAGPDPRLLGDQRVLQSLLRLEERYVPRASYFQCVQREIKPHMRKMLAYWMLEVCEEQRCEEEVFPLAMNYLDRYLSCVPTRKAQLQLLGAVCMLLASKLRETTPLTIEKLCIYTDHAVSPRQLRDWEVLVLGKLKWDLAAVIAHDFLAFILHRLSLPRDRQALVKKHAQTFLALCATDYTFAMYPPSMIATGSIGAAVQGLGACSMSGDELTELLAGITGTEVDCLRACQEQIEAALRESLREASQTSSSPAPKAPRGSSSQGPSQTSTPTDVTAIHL
CDK6/CycD1, sequence (Q00534 whole entry, species assumed): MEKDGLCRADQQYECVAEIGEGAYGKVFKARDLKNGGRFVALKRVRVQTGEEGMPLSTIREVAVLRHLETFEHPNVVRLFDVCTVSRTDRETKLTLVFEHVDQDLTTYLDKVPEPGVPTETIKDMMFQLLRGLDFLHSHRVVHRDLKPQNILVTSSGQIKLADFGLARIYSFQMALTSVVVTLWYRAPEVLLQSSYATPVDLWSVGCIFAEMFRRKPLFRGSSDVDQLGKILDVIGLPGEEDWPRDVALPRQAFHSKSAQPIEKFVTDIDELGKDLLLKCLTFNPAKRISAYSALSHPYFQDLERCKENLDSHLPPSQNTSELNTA
CDK6/CycD1, sequence (P24385 whole entry partner, species assumed): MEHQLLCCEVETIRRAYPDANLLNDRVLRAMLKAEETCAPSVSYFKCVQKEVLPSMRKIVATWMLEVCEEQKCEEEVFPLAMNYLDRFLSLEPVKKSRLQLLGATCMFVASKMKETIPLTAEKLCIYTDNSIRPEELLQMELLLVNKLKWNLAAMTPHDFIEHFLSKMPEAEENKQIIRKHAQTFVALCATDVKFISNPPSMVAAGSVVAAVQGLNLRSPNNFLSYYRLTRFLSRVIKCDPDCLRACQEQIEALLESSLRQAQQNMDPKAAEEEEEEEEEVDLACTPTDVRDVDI

Structure (SMILES) | IC50 [1] [nM] | IC50 [2] [nM] | IC50 [3] [nM] | IC50 [4] [nM] | IC50 [5] [nM] | IC50 [6] [nM] | IC50 [7] [nM] | IC50 ([8]; read-out: AbsIC50) [nM] | IC50 ([8]; read-out: ReIC50) [nM] | Bottom(%) ([8]; bottom of inhibition curve) | Top(%) ([8]; top of inhibition curve) | TGI [9] [%] | TGI ([10]; 30 mg/kg) [%] | TGI ([10]; 50 mg/kg) [%]
C[C@@]1(O)CCC[C@H]1n1c(=O)c(OC(F)F)cc2cnc(NC3CCN(S(=O)(=O)c4ccccn4)CC3)nc21 [Example 27] | < 10 | < 10 | < 10 | ≤ 50 | ≤ 50 | ≤ 50 | ≤ 50 | – | – | – | – | 61.5 | – | –
CCCc1ccc(S(=O)(=O)N2CCC(Nc3ncc4cc(OC(F)F)c(=O)n([C@@H]5CCC[C@@]5(C)O)c4n3)CC2)cc1 [Example 28] | < 10 | < 10 | 10 to 100 | 200 to 51000 | 50 to 5200 | 50 to 5200 | 50 to 5200 | – | – | – | – | – | – | –
[2H]C1(Nc2ncc3cc(OC(F)F)c(=O)n([C@@H]4CCC[C@@]4(C)O)c3n2)CCN(S(C)(=O)=O)CC1 [Example 29] | < 10 | < 10 | < 10 | ≤ 50 | 50 to 5200 | ≤ 50 | ≤ 50 | – | – | – | – | – | 69 | 74.8
C[C@@]1(O)CCC[C@H]1n1c(=O)c(OC(F)F)cc2cnc(NC3CCN(S(=O)(=O)c4cccnc4)CC3)nc21 [Example 51] | < 10 | < 10 | < 10 | 50 to 5200 | ≤ 50 | ≤ 50 | ≤ 50 | – | – | – | – | – | – | –
C[C@@]1(O)CCC[C@H]1n1c(=O)c(OC(F)F)cc2cnc(Nc3ccc4c(c3)CN(S(C)(=O)=O)C4)nc21 [Example 64] | < 10 | < 10 | 10 to 100 | 50 to 5200 | ≤ 50 | ≤ 50 | 50 to 5200 | – | – | – | – | – | – | –
CC(C)(O)Cn1cc(S(=O)(=O)N2CCC(Nc3ncc4cc(OC(F)F)c(=O)n([C@@H]5CCC[C@@]5(C)O)c4n3)CC2)cn1 [Example 75] | < 10 | < 10 | 10 to 100 | 50 to 5200 | ≤ 50 | ≤ 50 | ≤ 50 | – | – | – | – | – | – | –

The next lines start with results.

IC50 [1] [nM] | IC50 [2] [nM] | IC50 [3] [nM] | IC50 [4] [nM] | IC50 [5] [nM] | IC50 [6] [nM] | IC50 [7] [nM] | IC50 ([8]; read-out: AbsIC50) [nM] | IC50 ([8]; read-out: ReIC50) [nM] | Structure (SMILES) | Bottom(%) ([8]; bottom of inhibition curve) | Top(%) ([8]; top of inhibition curve) | TGI [9] [%] | TGI ([10]; 30 mg/kg) [%] | TGI ([10]; 50 mg/kg) [%]
< 10 | < 10 | < 10 | ≤ 50 | ≤ 50 | ≤ 50 | 50 to 5200 | 26 | 26 | C[C@@]1(O)CCC[C@H]1n1c(=O)c(OC(F)F)cc2cnc(NC3CCN(S(=O)(=O)c4ccc(F)cc4)CC3)nc21 [Example 12] | 7.117 | 99.196 | – | – | –
< 10 | < 10 | 10 to 100 | 50 to 5200 | ≤ 50 | ≤ 50 | 50 to 5200 | – | – | C[C@@]1(O)CCC[C@H]1n1c(=O)c(OC(F)F)cc2cnc(NC3CCN(S(=O)(=O)c4ccccc4F)CC3)nc21 [Example 25] | – | – | – | – | –
< 10 | < 10 | 10 to 100 | 50 to 5200 | ≤ 50 | 50 to 5200 | 50 to 5200 | – | – | C[C@@]1(O)CCC[C@H]1n1c(=O)c(OC(F)F)cc2cnc(NC3CCN(S(=O)(=O)c4cc(F)ccc4F)CC3)nc21 [Example 26] | – | – | – | – | –
